# Assay results: patent US12612410B2 (CHILDREN'S HOSPITAL MEDICAL CENTER, priority 2020, dated 2026)
# Columns and labels:
# NF-κB [1] = test: NF-kB SEAP reporter assay in THP-1-Blue NF-κB cells, Pam3CSK4 stimulation; type: cell-based; settings: Pam3CSK4 1 ng/mL, read-out: NF-κB Pam3SCK4 IC50
# Method: (§1) THP-1-Blue NF-xB cells (InvivoGen) carrying a stable integrated NF-κB-inducible secreted embryonic alkaline phosphatase (SEAP) reporter construct were plated at a concentration of 1×10^5 cells per well. The cells were stimulated with Pam3CSK4 (1 ng/mL) or hIL1B (1 ng/mL). After 10-20 minutes, the cells were then treated with vehicle (DMSO) or serial dilutions of the test compounds (10 doses tested for each test compound, with a 1:10 dilution series starting at 1 μM or 3 μM) with a final volume of 200 μL for 24 hours at 37° C. After 24 hours, the cells were centrifuged and 20 μL supernatant was incubated with 180 μL QUANTI-Blue reagent at 37° C. for 30-60 minutes. The levels of NF-κB-induced was measured in a microplate reader at 620 nm.
# IRAK4 = biological target: T1, IRAK4 (Homo sapiens, UniProt Q9NWZ3); test: RBC HotSpot Kinase Assay, IRAK4; type: biochemical; set-up: purchased Reaction Biology (RBC), HotSpot kinase assay; settings: isolated kinase, 33P-ATP
# T1 sequence (Q9NWZ3 1-460): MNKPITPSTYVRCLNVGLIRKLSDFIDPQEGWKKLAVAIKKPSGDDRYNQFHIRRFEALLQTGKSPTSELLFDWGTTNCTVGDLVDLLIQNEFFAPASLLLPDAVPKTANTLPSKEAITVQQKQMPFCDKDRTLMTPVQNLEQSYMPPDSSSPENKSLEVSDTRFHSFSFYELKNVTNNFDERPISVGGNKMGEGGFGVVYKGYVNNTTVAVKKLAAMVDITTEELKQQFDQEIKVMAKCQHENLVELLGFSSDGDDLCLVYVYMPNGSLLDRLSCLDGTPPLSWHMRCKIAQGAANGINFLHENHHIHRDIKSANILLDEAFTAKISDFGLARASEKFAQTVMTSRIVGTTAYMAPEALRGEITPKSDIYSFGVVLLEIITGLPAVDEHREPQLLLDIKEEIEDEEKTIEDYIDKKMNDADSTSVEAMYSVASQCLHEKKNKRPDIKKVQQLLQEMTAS
# How it was run: (§2)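 Functional radiometric activity assay: kinase + substrate + cofactors in Hepes pH 7.5/MgCl2/EGTA/Brij35/BSA/Na3VO4/DTT, 1% DMSO; cmpd preincubation 20 min RT; 33P-ATP start, 2 h RT; P81 filter-binding readout.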
# IRAK1 = biological target: T2, IRAK1 (Homo sapiens, UniProt P51617); test: RBC HotSpot Kinase Assay, IRAK1; type: biochemical; settings: isolated kinase, 33P-ATP
# T2 construct: purchased Reaction Biology (RBC), HotSpot kinase assay
# How it was run: as §2
# NF-κB [2] = test: NF-kB SEAP reporter assay in THP-1-Blue NF-κB cells, hIL1B stimulation; type: cell-based; settings: hIL1B 1 ng/mL, read-out: NF-κB IL1B IC50
# Method: as §1
# FLT3 = biological target: T3, FLT3 (Homo sapiens, UniProt P36888); test: RBC HotSpot Kinase Assay, FLT3; type: biochemical; set-up: purchased Reaction Biology (RBC), HotSpot kinase assay; settings: isolated kinase, 33P-ATP
# T3 sequence (P36888 27-993): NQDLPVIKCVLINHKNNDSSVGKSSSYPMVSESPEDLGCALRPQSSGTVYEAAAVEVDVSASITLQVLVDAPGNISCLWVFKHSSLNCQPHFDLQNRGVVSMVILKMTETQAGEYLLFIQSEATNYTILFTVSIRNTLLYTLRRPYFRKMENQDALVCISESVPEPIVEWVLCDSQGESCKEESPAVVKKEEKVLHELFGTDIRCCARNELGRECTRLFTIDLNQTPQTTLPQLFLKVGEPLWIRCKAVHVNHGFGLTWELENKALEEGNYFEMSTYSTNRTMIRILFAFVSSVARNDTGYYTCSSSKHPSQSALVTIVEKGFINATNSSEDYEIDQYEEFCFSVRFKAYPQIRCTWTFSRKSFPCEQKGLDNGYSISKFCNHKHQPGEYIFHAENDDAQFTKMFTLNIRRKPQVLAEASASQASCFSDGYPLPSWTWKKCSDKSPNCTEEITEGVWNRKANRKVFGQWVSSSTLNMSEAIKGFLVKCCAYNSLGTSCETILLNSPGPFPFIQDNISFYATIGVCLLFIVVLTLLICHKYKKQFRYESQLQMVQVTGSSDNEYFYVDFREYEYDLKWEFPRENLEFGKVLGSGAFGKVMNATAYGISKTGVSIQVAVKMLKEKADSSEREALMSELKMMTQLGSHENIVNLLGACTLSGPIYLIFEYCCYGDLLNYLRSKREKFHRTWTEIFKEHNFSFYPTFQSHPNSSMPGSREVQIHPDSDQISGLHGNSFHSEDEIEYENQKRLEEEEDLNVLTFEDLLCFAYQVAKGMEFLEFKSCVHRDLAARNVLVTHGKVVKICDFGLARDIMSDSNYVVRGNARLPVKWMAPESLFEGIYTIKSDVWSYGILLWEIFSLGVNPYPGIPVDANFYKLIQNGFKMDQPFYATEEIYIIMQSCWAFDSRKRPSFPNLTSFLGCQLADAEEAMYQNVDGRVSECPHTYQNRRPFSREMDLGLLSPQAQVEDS
# How it was run: as §2
# MOLM14 D835Y cells = test: MOLM14 D835Y cell viability assay (Cell Titer Glo); type: cell-based; settings: Homo sapiens, MOLM-14, 48 h
# How it was run: (§3)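 MOLM14 cells carrying FLT3 D835Y or F691L were seeded at 1000 cells/well in RPMI-1640 with 20% FBS and dosed at 22 concentrations, 1:2 dilutions from 10 μM. Viability after 48 h by Cell Titer Glo luminescence; 2.3 μM bortezomib as cytotoxic control.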
# MOLM14 F691L cells = test: MOLM14 F691L cell viability assay (Cell Titer Glo); type: cell-based; settings: Homo sapiens, MOLM-14, 48 h
# How it was run: as §3
# T2 sequence (P51617 whole entry): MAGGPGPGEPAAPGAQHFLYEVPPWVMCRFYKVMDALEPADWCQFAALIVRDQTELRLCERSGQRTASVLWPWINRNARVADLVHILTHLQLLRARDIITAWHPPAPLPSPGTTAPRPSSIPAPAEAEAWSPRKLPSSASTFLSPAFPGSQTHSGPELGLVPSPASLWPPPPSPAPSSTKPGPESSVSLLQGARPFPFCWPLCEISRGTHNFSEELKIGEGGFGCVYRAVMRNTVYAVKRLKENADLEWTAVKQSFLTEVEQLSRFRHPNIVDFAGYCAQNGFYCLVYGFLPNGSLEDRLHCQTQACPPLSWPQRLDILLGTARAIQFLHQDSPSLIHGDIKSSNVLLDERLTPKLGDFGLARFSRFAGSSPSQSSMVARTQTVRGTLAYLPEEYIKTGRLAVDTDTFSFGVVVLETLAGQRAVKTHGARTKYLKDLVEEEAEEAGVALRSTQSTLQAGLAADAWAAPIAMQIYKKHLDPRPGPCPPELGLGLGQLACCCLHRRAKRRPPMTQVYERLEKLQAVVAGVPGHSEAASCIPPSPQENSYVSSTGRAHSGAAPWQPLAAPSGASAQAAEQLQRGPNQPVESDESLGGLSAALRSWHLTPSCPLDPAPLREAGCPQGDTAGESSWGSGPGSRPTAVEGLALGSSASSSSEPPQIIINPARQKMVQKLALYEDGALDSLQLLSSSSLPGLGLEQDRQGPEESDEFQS
IC50 (NF-κB [1]; 24 h) [µM],IC50 (IRAK4) [µM],IC50 (IRAK1) [µM],IC50 (NF-κB [2]; 24 h) [µM],IC50 (FLT3) [µM],IC50 (MOLM14 D835Y cells) [µM],IC50 (MOLM14 F691L cells) [µM],IC50 (NF-κB [1]; 24 hours) [µM],IC50 (NF-κB [2]; 24 hours) [µM],Compound
0.017,0.001,0.19,0.04,< 0.0005,–,–,–,–,"F[C@H]1CNC[C@@H]1Nc1cccc(-c2cnc3cnc(OCC(F)(F)F)cn23)n1 [Compound 36, N-((3S,4S)-4-fluoropyrrolidin-3-yl)-6-(6-(2,2,2-trifluoroethoxy)imidazo[1,2-a]pyrazin-3-yl)pyridin-2-amine]"
0.024,< 0.0005,0.696,0.144,< 0.0005,–,–,–,–,"CC(C)Oc1cn2c(-c3cccc(N[C@H]4CNC[C@@H]4F)n3)cnc2cn1 [Compound 59, N-((3S,4S)-4-fluoropyrrolidin-3-yl)-6-(6-isopropoxyimidazo[1,2-a]pyrazin-3-yl)pyridin-2-amine]"
–,0.002,0.049,–,0.0009,0.007,0.039,0.02,0.263,"O=S1(=O)CCCN1c1cn2c(-c3cccc(N[C@@H]4CCCNC4)n3)cnc2cn1 [Compound 96, (R)-2-(3-(6-(piperidin-3-ylamino)pyridin-2-yl)imidazo[1,2-a]pyrazin-6-yl)isothiazolidine 1,1-dioxide]"
0.034,0.002,0.833,0.356,< 0.0005,–,–,–,–,"F[C@H]1CNC[C@@H]1Nc1cccc(-c2cnc3cnc(OCC4CC4)cn23)n1 [compound 60, 6-(6-(cyclopropylmethoxy)imidazo[1,2-a]pyrazin-3-yl)-N-((3S,4S)-4-fluoropyrrolidin-3-yl)pyridin-2-amine]"
